The nature of data set [1]: Displacement of [125I](E)-3-(4-(Dimethylamino-phenyl)-1-(4-iodophenyl)prop-2-en-1-one from beta amyloid(1-42) aggregates. Set-up: species or system Homo sapiens. (In general: Displacement assays read how much labelled ligand stays bound in the presence of the test substance.)
For data set [2], the system named is Lung. Put plainly: Biodistribution in ddY mouse lung at 0.2 to 0.3 uCi, iv after 30 mins. The format is ADME, organism-based. The following applies: in vivo, 0.5 h.
The test system of data set [3] is Lung. Put plainly: Biodistribution in ddY mouse lung at 0.2 to 0.3 uCi, iv after 2 mins. The format is ADME, organism-based. Particulars: in vivo.
Data set [4] deals with Heart. Put plainly: Biodistribution in ddY mouse heart at 0.2 to 0.3 uCi, iv after 2 mins. The following applies: in vivo. Format: ADME, organism-based.
Data set [5] concerns Stomach. Description: Biodistribution in ddY mouse stomach at 0.2 to 0.3 uCi, iv after 2 mins. Particulars: in vivo. The format is ADME, organism-based.
The test system of data set [6] is Spleen. Put plainly: Biodistribution in ddY mouse spleen assessed as at 0.2 to 0.3 uCi, iv after 30 mins. The format is ADME, organism-based. Particulars: in vivo, 0.5 h.
In data set [7] the test system is Liver. Description: Biodistribution in ddY mouse liver at 0.2 to 0.3 uCi, iv after 30 mins. Particulars: in vivo, 0.5 h. The format is ADME, organism-based.
Data set [8] deals with Intestine. Description: Biodistribution in ddY mouse intestine at 0.2 to 0.3 uCi, iv after 30 mins. Format: ADME, organism-based. Particulars: in vivo, 0.5 h.
For data set [9], the system named is Kidney. Description: Biodistribution in ddY mouse kidney at 0.2 to 0.3 uCi, iv after 30 mins. The following applies: in vivo, 0.5 h. Format: ADME, organism-based.
Data set [10] deals with Blood. Description: Biodistribution in ddY mouse blood at 0.2 to 0.3 uCi, iv after 2 mins. Format: ADME, organism-based. The following applies: in vivo.
For data set [11], the system named is Brain. Description: Biodistribution in ddY mouse brain at 0.2 to 0.3 uCi, iv after 30 mins. Particulars: in vivo, 0.5 h. The format is ADME, organism-based.
Data set [12] deals with Intestine. Put plainly: Biodistribution in ddY mouse intestine at 0.2 to 0.3 uCi, iv after 2 mins. Format: ADME, organism-based. Particulars: in vivo.
Data set [13] concerns Kidney. Description: Biodistribution in ddY mouse kidney at 0.2 to 0.3 uCi, iv after 2 mins. Format: ADME, organism-based. The following applies: in vivo.
Data set [14] concerns Stomach. Put plainly: Biodistribution in ddY mouse stomach after 30 mins. The format is ADME, organism-based. The following applies: in vivo, 0.5 h.
Data set [15] relates to Liver. Put plainly: Biodistribution in ddY mouse liver at 0.2 to 0.3 uCi, iv after 2 mins. Particulars: in vivo. Format: ADME, organism-based.
Data set [16] has as its system Brain. Put plainly: Biodistribution in ddY mouse brain at 0.2 to 0.3 uCi, iv after 2 mins. Format: ADME, organism-based. The following applies: in vivo.
Data set [17] concerns Blood. Put plainly: Biodistribution in ddY mouse blood at 0.2 to 0.3 uCi, iv after 30 mins. The format is ADME, organism-based. The following applies: in vivo, 0.5 h.
The subject of data set [18] is Spleen. Put plainly: Biodistribution in ddY mouse spleen at 0.2 to 0.3 uCi, iv after 2 mins. The following applies: in vivo. Format: ADME, organism-based.
Data set [19] has as its system Heart. Put plainly: Biodistribution in ddY mouse heart at 0.2 to 0.3 uCi, iv after 30 mins. The following applies: in vivo, 0.5 h. Format: ADME, organism-based.

For `O=C(/C=C/c1ccc(O)cc1)c1ccc(I)cc1`, in data set [1], affinity was put at a Ki of 21.4 nM.
In the case of `COc1ccc(/C=C/C(=O)c2ccc(I)cc2)cc1`, the Ki (in general, a dissociation constant, usually derived from enzyme kinetics or from competition with a known ligand) in [1] was 6.3 nM.
On the same count and under the same terms, the value for `CNc1ccc(/C=C/C(=O)c2ccc(I)cc2)cc1` was 6.3 nM.
Turning to `CNc1ccc(/C=C/C(=O)c2ccc([125I])cc2)cc1`, the Drug uptake came to 4.01 % ID/g in the data set on Lung [2]; 8.3 % ID/g in the data set with Lung [3]; 4.72 % ID/g in the data set on Heart [4]; 1.02 %ID in the data set with Stomach [5]; 0.8 % ID/g in the data set on Spleen [6]; 8.61 % ID/g in the data set on Liver [7]. In addition, the Drug uptake is reported as 10.46 % ID/g in the data set on Intestine [8]; 11.43 % ID/g with Kidney [9]; 1.64 % ID/g with Blood [10]; 0.61 % ID/g with Brain [11]; 2.06 % ID/g in the data set on Intestine [12]; 6.62 % ID/g in the data set with Kidney [13]. The Drug uptake amounted to 1.28 %ID in the data set on Stomach [14]; 7.2 % ID/g in the data set with Liver [15]; 4.72 % ID/g in the data set on Brain [16]; 1.47 % ID/g in the data set with Blood [17]; 2.85 % ID/g in the data set with Spleen [18]; 1.08 % ID/g in the data set with Heart [19].
In data set [1], `Nc1ccc(/C=C/C(=O)c2ccc(I)cc2)cc1` showed a Ki of 105 nM.
Same read-out and setting: with `CN(C)c1ccc(/C=C/C(=O)c2ccc(I)cc2)cc1` the figure was 2.9 nM.
As to `COc1ccc(/C=C/C(=O)c2ccc([125I])cc2)cc1`, the Drug uptake with Lung [2] is on record as 0.79 % ID/g; in the data set on Lung [3], 3.81 % ID/g; with Heart [4], 3.74 % ID/g; with Stomach [5] it was 0.9 %ID; in the data set with Spleen [6] it was 0.29 % ID/g; with Liver [7], 4.03 % ID/g. Moreover, the Drug uptake in the data set with Intestine [8] is 10.19 % ID/g; with Kidney [9], 3.27 % ID/g; with Blood [10], 1.34 % ID/g; with Brain [11], 0.22 % ID/g; in the data set on Intestine [12], 1.93 % ID/g; in the data set with Kidney [13], 4.61 % ID/g. In addition, the Drug uptake with Stomach [14] is given as 2.11 %ID; with Liver [15], 5.97 % ID/g; with Brain [16], 2.45 % ID/g; with Blood [17], 0.46 % ID/g; in the data set on Spleen [18] it was 1.38 % ID/g; in the data set with Heart [19] it was 0.63 % ID/g.
As to `O=C(/C=C/c1ccc(O)cc1)c1ccc([125I])cc1`, the Drug uptake in the data set with Lung [2] worked out at 1.04 % ID/g; with Lung [3], 10.04 % ID/g; in the data set on Heart [4] it was 5.92 % ID/g; with Stomach [5] it was 1.22 %ID; with Spleen [6] it was 1.04 % ID/g; with Liver [7], 6.64 % ID/g. Further, the Drug uptake is reported as 12.94 % ID/g in the data set on Intestine [8]; 3.51 % ID/g in the data set with Kidney [9]; 1.89 % ID/g in the data set on Blood [10]; 0.4 % ID/g with Brain [11]; 1.87 % ID/g in the data set with Intestine [12]; 9.3 % ID/g in the data set with Kidney [13]. The Drug uptake came out at 2.16 %ID in the data set with Stomach [14]; 8.39 % ID/g with Liver [15]; 3.57 % ID/g with Brain [16]; 0.57 % ID/g in the data set with Blood [17]; 3.56 % ID/g with Spleen [18]; 0.49 % ID/g with Heart [19].
Regarding `Nc1c(/N=N/c2ccc(-c3ccc(/N=N/c4cc(S(=O)(=O)O)c5ccccc5c4N)cc3)cc2)cc(S(=O)(=O)O)c2ccccc12` [CONGO RED], in data set [1], the Ki is over 10000 nM.
For `Cc1ccc2c(c1)sc(-c1ccc(N(C)C)cc1)[n+]2C` [THIOFLAVIN T], in data set [1], the Ki was over 10000 nM.
For the compound `CN(C)c1ccc(/C=C/C(=O)c2ccc([125I])cc2)cc1`, the Drug uptake in the data set on Lung [2] is recorded as 1.84 % ID/g; in the data set on Lung [3], 3.4 % ID/g; in the data set with Heart [4], 3.92 % ID/g; with Stomach [5], 0.96 %ID; in the data set with Spleen [6], 0.6 % ID/g; in the data set on Liver [7], 11.04 % ID/g. Besides, the Drug uptake in the data set with Intestine [8] was 10.38 % ID/g; in the data set on Kidney [9], 11.62 % ID/g; in the data set with Blood [10] it was 1.85 % ID/g; in the data set with Brain [11] it was 0.49 % ID/g; in the data set with Intestine [12], 1.31 % ID/g; in the data set with Kidney [13] it was 5.32 % ID/g. Besides, the Drug uptake with Stomach [14] is listed as 2.45 %ID; in the data set on Liver [15], 10.02 % ID/g; in the data set on Brain [16], 2.04 % ID/g; in the data set with Blood [17], 1.4 % ID/g; in the data set with Spleen [18], 1.37 % ID/g; in the data set on Heart [19], 1.18 % ID/g.
Turning to `Nc1ccc(/C=C/C(=O)c2ccc([125I])cc2)cc1`, the Drug uptake in the data set with Lung [2] amounted to 1.43 % ID/g; with Lung [3], 4.74 % ID/g; in the data set on Heart [4] it was 4.59 % ID/g; in the data set on Stomach [5] it was 0.87 %ID; in the data set on Spleen [6], 0.6 % ID/g; in the data set with Liver [7] it was 8.16 % ID/g. Moreover, the Drug uptake with Intestine [8] worked out at 11.27 % ID/g; with Kidney [9], 6.34 % ID/g; with Blood [10] it was 3.62 % ID/g; in the data set on Brain [11], 0.46 % ID/g; with Intestine [12] it was 1.84 % ID/g; in the data set on Kidney [13], 6.96 % ID/g. Further, the Drug uptake in the data set with Stomach [14] is 1.58 %ID; in the data set on Liver [15], 7.52 % ID/g; in the data set on Brain [16] it was 4.49 % ID/g; in the data set on Blood [17], 1.46 % ID/g; with Spleen [18] it was 1.53 % ID/g; with Heart [19] it was 0.84 % ID/g.

(Values after ChEMBL document CHEMBL1137483, “Novel chalcones as probes for in vivo imaging of beta-amyloid plaques in Alzheimer's brains” (Bioorg Med Chem, 2007).)
